Measured values taken from patent US20240116985A1, “STAPLED PEPTIDES AND METHODS THEREOF” (priority 2020, published 2024).

Columns and labels:
[1] = biological target: T1, full-length B-Catenin (Uniprot ID P35222) (Homo sapiens, UniProt P35222); experiment: Alphascreen binding assay (beta-catenin / biotin-TCF4 10-53)
T1 construct: 65 nM full-length B-Catenin (Uniprot ID P35222)
T1 sequence (P35222 1-781): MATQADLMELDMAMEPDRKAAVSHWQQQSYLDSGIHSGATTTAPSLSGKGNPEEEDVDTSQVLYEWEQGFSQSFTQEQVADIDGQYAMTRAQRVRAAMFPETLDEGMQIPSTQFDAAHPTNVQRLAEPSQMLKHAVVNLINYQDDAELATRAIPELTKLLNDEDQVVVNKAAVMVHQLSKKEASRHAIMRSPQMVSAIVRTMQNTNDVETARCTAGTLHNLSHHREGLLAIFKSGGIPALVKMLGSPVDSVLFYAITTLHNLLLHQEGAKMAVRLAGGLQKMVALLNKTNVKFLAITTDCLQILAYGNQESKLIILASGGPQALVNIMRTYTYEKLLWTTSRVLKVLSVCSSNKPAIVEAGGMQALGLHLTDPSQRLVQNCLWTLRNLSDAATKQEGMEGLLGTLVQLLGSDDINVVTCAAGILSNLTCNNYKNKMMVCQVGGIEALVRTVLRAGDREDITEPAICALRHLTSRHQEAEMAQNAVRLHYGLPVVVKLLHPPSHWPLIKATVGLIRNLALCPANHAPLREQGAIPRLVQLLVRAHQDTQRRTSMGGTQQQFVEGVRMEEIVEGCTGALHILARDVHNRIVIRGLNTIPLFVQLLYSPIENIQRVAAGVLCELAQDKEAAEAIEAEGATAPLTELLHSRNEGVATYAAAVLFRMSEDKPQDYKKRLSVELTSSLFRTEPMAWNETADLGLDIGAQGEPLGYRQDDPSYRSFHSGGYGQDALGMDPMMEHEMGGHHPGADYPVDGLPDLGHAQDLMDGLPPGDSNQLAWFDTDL
Experimental: In some embodiments, an assay is an Alphascreen binding assay. A useful protocol is described below as an example.
Alphascreen binding assay: Using the AlphaScreen Histidine (Nickel Chelate) Detection Kit (PerkinElmer), peptide solutions were prepared in buffer (50 mM Tris pH 8.0, 250 mM NaCl, 2% glycerol, 0.03% Tween-20, 0.01% TritonX-100, 0.1% BSA w/v) using a 3-fold serial dilution from 10 uM to 5 nM. Probe solution (65 nM full-length B-Catenin (Uniprot ID P35222), mixed with 10 nM biotin labeled TCF4 residues 10-53 (Uniprot ID Q9NQB0) peptide in buffer) was prepared and 4 uL per well was plated in a white polystyrene 384-well plate (Corning). Equal volume of the titrated peptide was added to the plate and incubated for 15 minutes at 20° C. Then 4 uL of donor and 4 uL acceptor beads at 10 ug/mL were added to the plate, for a 16 uL reaction pool and protected from light for 60 minutes at 20° C. prior to read. Reads were performed on a CLARIOstar plate reader (BMG Labtech) in duplicate, and data were fitted to a 1:1 binding model with hill slope using an in-house script. All provided concentrations are final concentrations.

[2] = CHI Log D procedure; type: physicochemical; details: for CHI Log D: pH 7.4; for chromatographic logD: pH 7.4, CHI Log D

Structure (SMILES) | EC50 [1] [µM] | CHI Log D [2] | chromatographic logD [2]
COc1cccc(C[C@@H]2NC(=O)[C@H](C)NC(=O)[C@H](C)NC(=O)[C@H](CC(=O)O)NC(=O)[C@H](CC(=O)O)NC(=O)[C@](C)(NC(=O)[C@H](C)NC(=O)[C@H](CC(=O)O)NC(=O)[C@H](Cc3ccccc3)NC(C)=O)CCCCCCC=CCOC(=O)N3CC[C@@](C(=O)N[C@@H](Cc4ccccc4)C(=O)N[C@@H](Cc4c[nH]c5ccccc45)C(=O)N[C@@H](CCC(N)=O)C(N)=O)(C3)NC(=O)[C@H](C(C)C)NC2=O)c1 [I-103, Ac-Phe-Asp-Ala-R8-Asp-Asp-Ala-Ala-3OMeF-Val-PyrS-Phe-Trp-Gln-NH2] | 4.94 | 1.268 | –
COc1cccc(C[C@@H]2NC(=O)[C@H](C)NC(=O)[C@H](C)NC(=O)[C@H](CC(=O)O)NC(=O)[C@H](CC(=O)O)NC(=O)[C@](C)(NC(=O)[C@H](C)NC(=O)[C@H](CC(=O)O)NC(=O)[C@H](Cc3ccccc3)NC(C)=O)CCCCCCC=CCOC(=O)N3CC[C@@](C(=O)N[C@@H](Cc4ccccc4)C(=O)N[C@@H](Cc4c[nH]c5ccccc45)C(=O)N[C@@H](CCC(N)=O)C(N)=O)(C3)NC(=O)[C@H](C(C)C)NC2=O)c1 [I-104, Ac-Phe-Asp-Ala-R8-Asp-Asp-Ala-Ala-3OMeF-Val-PyrS-Phe-Trp-Gln-NH2] | 6.17 | 1.333 | –
CC(=O)N[C@@H](Cc1ccccc1)C(=O)N[C@@H](CC(=O)O)C(=O)N[C@@H](C)C(=O)N[C@]1(C)CCCCCCC=CCOC(=O)N2CC[C@@](C(=O)N[C@@H](Cc3ccccc3)C(=O)N[C@@H](Cc3c[nH]c4ccccc34)C(=O)N[C@@H](CCC(N)=O)C(N)=O)(C2)NC(=O)[C@H]([C@@H](C)O)NC(=O)[C@H](Cc2ccccc2)NC(=O)[C@H](C)NC(=O)[C@H](C)NC(=O)[C@H](CC(=O)O)NC(=O)[C@H](CC(=O)O)NC1=O [I-223, Ac-Phe-Asp-Ala-R8-Asp-Asp-Ala-Ala-Phe-Thr-PyrS-Phe-Trp-Gln-NH2] | 4.12 | 1.401 | –
CC(=O)N1CCC[C@]12CC=CCCCC1(CCCC=CCCCCCC[C@@](C)(C(=O)N[C@@H](Cc3ccccc3)C(=O)N[C@@H](Cc3c[nH]c4ccccc34)C(=O)N[C@@H](CCC(N)=O)C(N)=O)NC(=O)[C@H](C(C)C)NC(=O)[C@H](Cc3cc(F)c(F)c(F)c3)NC(=O)[C@H](C)NC(=O)[C@H](C)NC(=O)[C@H](CCC(=O)O)NC(=O)[C@H](CC(=O)O)NC1=O)NC(=O)[C@H](C)NC(=O)[C@H](CC(=O)O)NC2=O (stereo partly drawn) [I-212, Ac-PL3-Asp-Ala-B5-Asp-Glu-Ala-Ala-345FF-Val-S8-Phe-Trp-Gln-NH2] | 0.367 | 2.101 | –
CC(=O)N1CCC[C@]12CC=CCCCC1(CCCC=CCCCCCC[C@@](C)(C(=O)N[C@@H](Cc3ccccc3)C(=O)N[C@@H](Cc3c[nH]c4ccccc34)C(=O)N[C@@H](CCC(N)=O)C(N)=O)NC(=O)[C@H](C(C)C)NC(=O)[C@H](Cc3ccccc3)NC(=O)[C@H](C)NC(=O)[C@H](C)NC(=O)[C@H](CCC(N)=O)NC(=O)[C@H](CC(=O)O)NC1=O)NC(=O)[C@H](C)NC(=O)[C@H](CC(=O)O)NC2=O (stereo partly drawn) [I-126, Ac-PL3-Asp-Ala-B5-Asp-Gln-Ala-Ala-Phe-Val-S8-Phe-Trp-Gln-NH2] | 1.48 | 2.239 | –
CC(=O)N1CCC[C@]12CC=CCCCC1(CCCC=CCCCCCC[C@@](C)(C(=O)N[C@@H](Cc3ccccc3)C(=O)N[C@@](C)(Cc3c[nH]c4ccccc34)C(=O)N[C@@H](CCC(N)=O)C(N)=O)NC(=O)[C@H](C(C)C)NC(=O)[C@H](Cc3ccccc3)NC(=O)[C@H](C)NC(=O)[C@H](C)NC(=O)[C@H](CCC(=O)O)NC(=O)[C@H](CC(=O)O)NC1=O)NC(=O)[C@H](C)NC(=O)[C@H](CC(=O)O)NC2=O (stereo partly drawn) [I-136, Ac-PL3-Asp-Ala-B5-Asp-Glu-Ala-Ala-Phe-Val-S8-Phe-aMeW-Gln-NH2] | 3.3 | 2.136 | –
CC(=O)N1CCC[C@]12CC=CCCCC1(CCCC=CCCCCCC[C@@](C)(C(=O)N[C@@H](Cc3ccccc3)C(=O)N[C@@H](Cc3c[nH]c4ccccc34)C(=O)NC(C)(C)C(N)=O)NC(=O)[C@H](C(C)C)NC(=O)[C@H](Cc3ccccc3)NC(=O)[C@H](C)NC(=O)[C@H](C)NC(=O)[C@H](CCC(=O)O)NC(=O)[C@H](CC(=O)O)NC1=O)NC(=O)[C@H](C)NC(=O)[C@H](CC(=O)O)NC2=O (stereo partly drawn) [I-133, Ac-PL3-Asp-Ala-B5-Asp-Glu-Ala-Ala-Phe-Val-S8-Phe-Trp-Aib-NH2] | 0.495 | 2.383 | –
CC(=O)N[C@@H](Cc1ccccc1)C(=O)N[C@@H](CC(=O)O)C(=O)N[C@@H](C)C(=O)N[C@]1(C)CCCCCCC=CCOC(=O)N2CC[C@@](C(=O)N[C@@H](Cc3ccccc3)C(=O)N[C@@H](Cc3c[nH]c4ccccc34)C(=O)N[C@@H](CCC(N)=O)C(N)=O)(C2)NC(=O)[C@H](C(C)C)NC(=O)[C@H](Cc2ccc(F)c(F)c2)NC(=O)[C@H](C)NC(=O)[C@H](C)NC(=O)[C@H](CC(=O)O)NC(=O)[C@H](CC(=O)O)NC1=O [I-79, Ac-Phe-Asp-Ala-R8-Asp-Asp-Ala-Ala-34FF-Val-PyrS-Phe-Trp-Gln-NH2] | 3.97 | – | 1.27
CC(=O)N1CCC[C@]12CC=CCCCC1(CCCC=CCCCCCC[C@@](C)(C(=O)N[C@@H](Cc3ccccc3)C(=O)N[C@@H](Cc3c[nH]c4ccccc34)C(=O)N[C@@H](CCC(N)=O)C(N)=O)NC(=O)[C@H](C(C)C)NC(=O)[C@H](Cc3ccccc3)NC(=O)[C@H](C)NC(=O)[C@H](C)NC(=O)[C@H](CCC(=O)O)NC(=O)[C@H](CCc3ccccc3)NC1=O)NC(=O)[C@H](C)NC(=O)[C@H](CC(=O)O)NC2=O (stereo partly drawn) [I-197, Ac-PL3-Asp-Ala-B5-hPhe-Glu-Ala-Ala-Phe-Val-S8-Phe-Trp-Gln-NH2] | 6.15 | 3.809 | –
CC(=O)N1CCC[C@]12CC=CCCCC1(CCCC=CCCCCCC[C@@](C)(C(=O)N[C@@H](Cc3ccccc3)C(=O)N[C@@H](Cc3c[nH]c4ccccc34)C(=O)N[C@@H](CCC(N)=O)C(N)=O)NC(=O)[C@H](C(C)C)NC(=O)[C@H](Cc3ccccc3)NC(=O)[C@H](C)NC(=O)[C@H](C)NC(=O)[C@H](Cc3ccc4ccccc4c3)NC(=O)[C@H](CC(=O)O)NC1=O)NC(=O)[C@H](C)NC(=O)[C@H](CC(=O)O)NC2=O (stereo partly drawn) [I-232, Ac-PL3-Asp-Ala-B5-Asp-2NapA-Ala-Ala-Phe-Val-S8-Phe-Trp-Gln-NH2] | 7.64 | – | 3.04
CC(=O)N1CCC[C@]12CC=CCCCC1(CCCC=CCCCCCC[C@@](C)(C(=O)N[C@@H](Cc3ccccc3)C(=O)N[C@@H](Cc3c[nH]c4ccc(F)cc34)C(=O)N[C@@H](CCC(N)=O)C(N)=O)NC(=O)[C@H](C(C)C)NC(=O)[C@H](Cc3ccccc3)NC(=O)[C@H](C)NC(=O)[C@H](C)NC(=O)[C@H](CCC(=O)O)NC(=O)[C@H](CC(=O)O)NC1=O)NC(=O)[C@H](C)NC(=O)[C@H](CC(=O)O)NC2=O (stereo partly drawn) [I-146, Ac-PL3-Asp-Ala-B5-Asp-Glu-Ala-Ala-Phe-Val-S8-Phe-5FW-Gln-NH2] | 1.22 | – | 2
CC(=O)N1CCC[C@]12CC=CCCCC1(CCCC=CCCCCCC[C@@](C)(C(=O)N[C@@H](Cc3ccc(Cl)cc3)C(=O)N[C@@H](Cc3c[nH]c4ccccc34)C(=O)N[C@@H](CCC(N)=O)C(N)=O)NC(=O)[C@H](C(C)C)NC(=O)[C@H](Cc3ccccc3)NC(=O)[C@H](C)NC(=O)[C@H](C)NC(=O)[C@H](CC(=O)O)NC(=O)[C@H](CC(=O)O)NC1=O)NC(=O)[C@H](C)NC(=O)[C@H](CC(=O)O)NC2=O (stereo partly drawn) [I-313, Ac-PL3-Asp-Ala-B5-Asp-Asp-Ala-Ala-Phe-Val-S8-4C1F-Trp-Gln-NH2] | 3.6 | 2.159 | –
